Reference: patent publication US20230226027A1, “THIENOPYRIDINE DERIVATIVES FOR USE IN THE TREATMENT OF CORONAVIRUS INFECTION” (INSERM (INSTITUT NATIONAL DE LA SANTÉ ET DE LA RECHERCHE …, priority 2020, published 2023)
Read-outs that look alike come from different tables or passages of the source.

Assays:
SARS-CoV-2 [1] = format: cell-based; conditions: VeroE6 cells, 1 h pretreatment, MOI 0.001, viral RNA in supernatant 24 hours post-infection (FIG. 1)
SARS-CoV-2 [2] = format: cell-based; conditions: Calu-3 cells, 2 h pre-treatment, MOI 0.001, 24 hours post-infection (FIGS. 2A-2B)
SARS-CoV-2 [3] = format: cell-based; conditions: Calu-3 cells, concentration ≥ 10 µM, even when given 4 h post-infection, TCID50 24 hours post-infection (FIG. 4)
Calu-3 cells = assay: Cellular viability assay (MTT) in Calu-3 cells; format: cell-based, human; conditions: 24 hours of treatment, MTT (FIG. 3)
Procedure: FIG. 3. Analysis of cellular viability in human lung epithelial Calu-3 cells treated with AM-001. Calu-3 cells treated for 24 hours with the indicated concentrations of AM-001. Cellular viability was measured with the Cell Proliferation Kit I (MTT) (Roche Applied Science, Indianapolis, IN) according to the manufacturer’s protocol.
Calu-3 cells were plated 48 hours before treatment in 96-wells plates at a density of 1.10^5 cells per well. After 24 hours of treatment with the different concentrations of AM-001, cells viability was measured using the Cell Proliferation Kit I (MTT) (Roche Applied Science, Indianapolis, IN) according to the manufacturer’s protocol.

## Nc1c(C(=O)Nc2ccc(F)cc2)sc2nc(-c3cccs3)cc(-c3ccccc3)c12 [AM-001]
SARS-CoV-2 [1]
  replication of SARS-CoV-2: Inhibition of SARS-CoV-2 replication
SARS-CoV-2 [1]; listed as AM001
  replication of SARS-CoV-2: significantly decreases the replication
SARS-CoV-2 [2]
  SARS CoV-2 replication (viral RNA and infectious particles in supernatant): inhibit SARS CoV-2 replication
SARS-CoV-2 [3]
  infectious virus production: totally blocks infectious virus production
Calu-3 cells
  cellular toxicity: no detected cellular toxicity
